Experimental findings from patent publication US20050220779A1, “Integrin linked kinase modulation of macrophage activation” (priority 2001, published 2005) are described below.

What all share (format): cell-based, murine
The subject of test [1] is LPS-IFN-γ stimulated macrophages. Kind of test: NO production of LPS-IFN-γ stimulated macrophages (cell type not specified; dose response, Table 2 and second Table 3). As to conditions: LPS-INF-γ stimulated. As to the method: Treatment of primary macrophages and RAW 264.7 cells. […] Following 3 h incubation, at 37 C, 5% CO2 (macrophages were allowed to attach) cells were stimulated with LPS (0.5 μg/ml) and IFN-γ (100 U/ml) in the absence or presence of various concentrations of ILK inhibitors (all treatments were replicated six times). Cells were incubated for an additional 24 h, and cell free culture supernatants from each well were collected for NO and cytokine determination. The remaining cells were stained with crystal violet to determine effect of the inhibitors on cell survival.
NO production. Following stimulation, the production of NO was determined by assaying culture supernatants for NO2^−, a stable reaction product of NO with molecular oxygen. Briefly, 100 μl of culture supernatant was reacted with an equal volume of Griess reagent at room temperature for 10 min. The absorbance at 550 nm was determined. All measurements were performed six times. The concentration of NO2^−was calculated by comparison with a standard curve prepared using NaNO2.

The next test has as its system iNOS. Briefly: iNOS protein expression in LPS-IFN-γ stimulated macrophages (western blot). As to conditions: Macrophages, LPS-INF-γ stimulated. The procedure: (§1) Western blot analysis. After incubation with the indicated stimuli in the presence of ILK inhibitors, cells (duplicate samples, 2×10^6cell/6-wells plate) were washed in PBS and lysed on ice in 60 μl of lysis buffer. The protein content of each sample was determined using the Bradford protein assay kit (Bio-Rad, Richmond, Calif.). Absorbance was measured at 750 nm with a Beckman DU530 spectrophotometer (Palo Alto, Calif.). Proteins were mixed with […] sample buffer. Following separation of proteins by SDS-PAGE, using 8% bis-acrylamide in the separation gel, the proteins were transferred from the gels onto PVDF membranes using a MiniProtean III Cell (Bio-Rad), at 100 V for 1.5 h. Equal amounts of protein (5 μg) were loaded onto SDS-PAGE gels and examined by Western blot analysis with anti-Actin, anti-iNOS, anti-COX-2 murine monoclonal antibodies according to the manufacturers specifications (Transduction Laboratories). Primary Abs, in 5% blocking buffer (5% NFM/TTBS), were incubated with blots 2 h or overnight at 4° C., followed by incubation with peroxidase-conjugated secondary antibody. Chemiluminescence substrates were used to reveal positive bands. The bands were exposed on x-ray films. […] The Multi-Analyst/PC system from Biorad is being used to quantitate the bands of the expressed protein on the film. […] White light is chosen as the selected light source, thus the signal strength is measured in OD (optic density) units. […]
(§2) Effects of ILK inhibitors on the LPS-IFN-γ-induced iNOS and COX-2 expression NO production requires that iNOS be enzymatically activity, therefore experiments were performed to examine whether the inhibitory effect of ILK inhibitors was mediated by […] iNOS protein synthesis or effects on the activity of existing enzyme. Stimulated cells were treated with ILK inhibitors (25 μM), and lysed 16 h later and a western blot analysis was performed to quantitate iNOS protein expression. […]

The test system of test [2] is IL-6 release in macrophages. Briefly: LPS-IFN-γ-induced IL-6 release in macrophages (ELISA). Particulars: Mus musculus, Macrophage; 25 μM, 24 h, LPS (0.5 μg) IFN-γ (100 U). As to the method: Treatment of primary macrophages and RAW 264.7 cells. Primary macrophages (1.5×10^5 cells/well) and RAW 264.7 (4×10^4 cells/well) cells were grown in 96-well plates (nitrite assay), or 6-well plates (2×10^6 cells/well) for measurement of iNOS and COX-2 expression. Following 3 h incubation, at 37 C, 5% CO2 (macrophages were allowed to attach) cells were stimulated with LPS (0.5 μg/ml) and IFN-γ (100 U/ml) in the absence or presence of various concentrations of ILK inhibitors (all treatments were replicated six times). Cells were incubated for an additional 24 h, and cell free culture supernatants from each well were collected for NO and cytokine determination. The remaining cells were stained with crystal violet to determine effect of the inhibitors on cell survival.
Enzyme immunoassays for mouse IL-6. IL-6 levels were determined with PharMingen's OptElA ELISA set developed using an anti-mouse IL-6 Ab pair and mouse rIL-6 standard (PharMingen). Maxisorp F16 multiwell strips (Nunc, Roskilde, Denmark) were coated with anti-mouse IL-6 capture Ab (at recommended concentration) in 0.1 M NaHCO3, pH 9.5, 100 μl/well, overnight at 4° C. Plates were washed three times with 0.05% Tween 20 in PBS (PBST) and blocked for 1 h at room temperature with 200 μl/well of 10% FCS in PBS (blocking and dilution buffer). […] Absorbance was read at 450 nm with an EL 312e microplate reader. […]
A general note: In an ELISA, binding on a coated surface is turned into a signal by an enzyme label.

Another test concerns COX-2. Kind of test: COX-2 protein expression in LPS-IFN-γ stimulated macrophages (western blot). Particulars: Macrophages, LPS-INF-γ stimulated. As to the method:
as §1, with “Laboratories).” for “Laboratories). Primary Abs, in 5% blocking buffer (5% NFM/TTBS), were incubated with blots 2 h or overnight at 4° C., followed by incubation with peroxidase-conjugated secondary antibody. Chemiluminescence substrates were used to reveal positive bands. The bands were exposed on x-ray films.”
as §2
Nitric oxide and Prostaglandin E2 are two pleiotropic mediators produced at inflammatory sites by the inducible enzymes iNOS and cyclooxygenase-2 (COX-2), respectively. […] Finally, we evaluated the in-vitro effects of compounds on production of MCP-1 chemokine by TNF-α stimulated HUVEC cells. […]

What is called inhibition is the relative decrease from the control value, in per cent. Consider `NC1=NN=C(N)C1/N=N/c1ccc(F)c(C(F)(F)F)c1` [4-[(4-fluoro-3-trifluoromethylphenyl)hydrazono]-4H-pyrazole-3,5-diamine], for which the “NO (%)” value in test [1] is 74%. The “INOS (%)” value with iNOS is 88%. Besides, in test [2], the inhibition at 25 µM stood at 63%. For the same compound, the “COX-2 (%)” value in the test with COX-2 turned out to be 67%.
